# ChEMBL document CHEMBL5329153, “Is structural hybridization invoking new dimensions for antimalarial drug discovery research?” (RSC Med Chem, 2023)
# Assays:
# Plasmodium falciparum [1] = assay: Antimalarial activity against Chloroquine resistant Plasmodium falciparum assessed as parasitic growth inhibition by microscopic anlaysis; assay type: functional, organism-based
# Plasmodium falciparum [2] = assay: Antimalarial activity against Plasmodium falciparum 3D7 assessed as parasitic growth inhibition measured after 72 hrs by SYBR Green dye based assay; assay type: functional, organism-based; conditions: 3D7, 72 h
# Plasmodium falciparum [3] = assay: Antimalarial activity against Plasmodium falciparum assessed as parasitic growth inhibition; assay type: functional, organism-based
# Plasmodium falciparum [4] = assay: Antimalarial activity against Plasmodium falciparum 3D7 assessed as parasitic growth inhibition; assay type: functional, organism-based
# Plasmodium falciparum [5] = assay: Antimalarial activity against Plasmodium falciparum Dd2 assessed as parasitic growth inhibition; assay type: functional, organism-based
# Hemozoin = assay: Inhibition of beta-hematin formation
# Plasmodium falciparum [6] = assay: Antimalarial activity against Plasmodium falciparum K1 assessed as parasitic growth inhibition; assay type: functional, organism-based
# Plasmodium falciparum [7] = assay: Antimalarial activity against Chloroquine sensitive Plasmodium falciparum RKL-2 assessed as parasitic growth inhibition measured after 36 to 40 hrs by Giemsa staining based assay; assay type: functional, organism-based
# Plasmodium falciparum [8] = assay: Antimalarial activity against Chloroquine sensitive Plasmodium falciparum assessed as parasitic growth inhibition; assay type: functional, organism-based
# Plasmodium falciparum [9] = assay: Antimalarial activity against Chloroquine resistant Plasmodium falciparum W2 assessed as parasitic growth inhibition measured after 48 hrs by fluorescence based assay; assay type: functional, organism-based; conditions: W2, 48 h
# Plasmodium falciparum [10] = assay: Antimalarial activity against Plasmodium falciparum 3D7 assessed as parasitic growth inhibition measured after 42 hrs by [3H]hypoxanthine incorporation assay; assay type: functional, organism-based
# Plasmodium falciparum [11] = assay: Antimalarial activity against Chloroquine sensitive Plasmodium falciparum RKL-9 assessed as parasitic growth inhibition measured after 36 to 40 hrs by Giemsa staining based assay; assay type: functional, organism-based
# Plasmodium falciparum [12] = assay: Antimalarial activity against Chloroquine-pyrimethamine sensitive Plasmodium falciparum D6 assessed as parasitic growth inhibition measured after 48 hrs; assay type: functional, organism-based; conditions: D6, 48 h
# Plasmodium falciparum [13] = assay: Antimalarial activity against Chloroquine-pyrimethamine resistant Plasmodium falciparum W2 assessed as parasitic growth inhibition measured after 48 hrs; assay type: functional, organism-based; conditions: W2, 48 h
# Plasmodium falciparum [14] = assay: Antimalarial activity against chloroquine sensitive Plasmodium falciparum 3D7 assessed as parasitic growth inhibition by SYBR Green I dye based assay; assay type: functional, organism-based
smiles,measurement,setting,value
O=C(NNC(=S)Nc1cc(Cl)cc(Cl)c1)c1cc(-c2ccc(F)cc2F)nc2cc(Cl)c(F)cc12,IC50,Plasmodium falciparum [1],0.17 mg/L
C[C@H]1[C@H](OC(=O)CCC(=O)Oc2ccc(Nc3ncnc4ccccc34)cc2)O[C@@H]2O[C@@]3(C)CC[C@H]4[C@H](C)CC[C@@H]1[C@@]24OO3,EC50,Plasmodium falciparum [2],0.0038 µM
Cc1nc2ccccc2c(C)c1C(=O)NNC(=S)Nc1ccc(F)cc1F,IC50,Plasmodium falciparum [3],0.26 mg/L
CCN(CC)CCCC(C)Nc1ccnc2cc(Cl)ccc12 (centres undefined) [CHLOROQUINE],EC50,Plasmodium falciparum [2],0.0098 µM
same,EC50,Plasmodium falciparum [4],0.0127 µM
same,EC50,Plasmodium falciparum [5],0.165 µM
same,IC50,Hemozoin,0.18 µM
same,EC50,Plasmodium falciparum [6],0.303 µM
CC.Fc1ccc(Nc2nc(NCCCNc3ccnc4cc(Cl)ccc34)nc(Nc3ccc(F)cc3)n2)cc1,IC50,Plasmodium falciparum [7],51.5 mg/L
CC1=C(C(=O)Nc2ccc(Br)cn2)C(c2cn(-c3ccccc3)nc2-c2ccc(Cl)cc2)NC(=O)N1 (centres undefined),IC50,Plasmodium falciparum [8],0.03 mg/L
CC1=C(C(=O)Nc2ccc(Br)cn2)C(c2cn(-c3ccccc3)nc2-c2ccc(C)cc2)NC(=O)N1 (centres undefined),IC50,Plasmodium falciparum [8],0.08 mg/L
O=C1c2ccc(N3CCN(CCO)CC3)cc2C(=O)N1CCCCNc1ccnc2cc(Cl)ccc12,IC50,Plasmodium falciparum [9],0.014 µM
CC1=C(C(=O)Nc2ccccn2)C(c2cn(-c3ccccc3)nc2-c2ccc(F)cc2)NC(=O)N1 (centres undefined),IC50,Plasmodium falciparum [8],0.03 mg/L
O=C1c2cccc(N3CCOCC3)c2C(=O)N1CCCCNc1ccnc2cc(Cl)ccc12,IC50,Plasmodium falciparum [9],0.071 µM
Fc1ccc(Nc2nc(NCCCNc3ccnc4cc(Cl)ccc34)nc(Nc3ccc(F)c(Cl)c3)n2)cc1Cl,IC50,Plasmodium falciparum [7],56 mg/L
C[C@H]1[C@@H](OCCc2cn(-c3cccc4cc(Cl)ccc34)nn2)O[C@@H]2O[C@]3(C)CC[C@H]4[C@H](C)CC[C@@H]1[C@@]24OO3,EC50,Plasmodium falciparum [4],0.0088 µM
same,EC50,Plasmodium falciparum [5],0.0045 µM
same,EC50,Plasmodium falciparum [6],0.002 µM
COc1ccc(OC)c2c1CC(Nc1ccnc3cc(Cl)ccc13)C2,IC50,Hemozoin,0.48 µM
COc1ccc2cc3[n+](cc2c1OCc1cn(-c2ccc(S(=O)(=O)Nc4ccc(Cl)cc4)cc2)nn1)CCc1cc2c(cc1-3)OCO2.[Cl-],IC50,Plasmodium falciparum [10],0.1 mg/L
O=C1c2ccc(N3CCCCC3)cc2C(=O)N1CCCCNc1ccnc2cc(Cl)ccc12,IC50,Plasmodium falciparum [9],0.077 µM
Cc1nc2ccccc2c(C)c1C(=O)NNC(=S)Nc1ccc([N+](=O)[O-])cc1,IC50,Plasmodium falciparum [3],0.25 mg/L
O=C(NNC(=S)Nc1ccccc1)c1cc(-c2c(F)cccc2F)nc2ccc(C(F)(F)F)cc12,IC50,Plasmodium falciparum [1],0.19 mg/L
COc1ccc2cc3[n+](cc2c1OCc1cn(-c2ccc(S(=O)(=O)Nc4ccc(F)cc4)cc2)nn1)CCc1cc2c(cc1-3)OCO2.[Cl-],IC50,Plasmodium falciparum [10],0.15 mg/L
O=C1C(O)=C(N2CCN(c3ccnc4cc(Cl)ccc34)CC2)C(=O)c2ccccc21,IC50,Plasmodium falciparum [7],0.391 µM
same,IC50,Plasmodium falciparum [11],1.09 µM
N=C(N=C(N)N)SCCNc1ccnc2cc(Cl)ccc12,IC50,Plasmodium falciparum [12],2.25 µM
same,IC50,Plasmodium falciparum [13],3.71 µM
C[C@H]1[C@H](OC(=O)CCC(=O)NCCNc2ccnc3cc(Cl)ccc23)O[C@@H]2O[C@]3(C)CC[C@H]4[C@H](C)CC[C@@H]1[C@@]24OO3,EC50,Plasmodium falciparum [4],0.0027 µM
same,EC50,Plasmodium falciparum [5],0.001 µM
same,EC50,Plasmodium falciparum [6],0.00078 µM
O=C1c2cccc(N3CCCCC3)c2C(=O)N1CCCCNc1ccnc2cc(Cl)ccc12,IC50,Plasmodium falciparum [9],0.051 µM
Cc1nc2ccccc2c(C)c1C(=O)NNC(N)=S,IC50,Plasmodium falciparum [3],0.19 mg/L
COc1cc2c(cc1OC)CC(Nc1ccnc3cc(Cl)ccc13)C2,IC50,Hemozoin,0.39 µM
Cc1nc2ccccc2c(C)c1C(=O)NNC(=S)Nc1ccc(Cl)cc1,IC50,Plasmodium falciparum [3],0.15 mg/L
O=C(NNC(=S)Nc1c(F)cccc1F)c1cc(-c2ccccc2Br)nc2c(Cl)cc(C(F)(F)F)cc12,IC50,Plasmodium falciparum [1],0.36 mg/L
COc1cccc(NC(=S)NNC(=O)c2c(C)nc3ccccc3c2C)c1,IC50,Plasmodium falciparum [3],0.1 mg/L
C[C@H]1[C@H](OC(=O)CCC(=O)Nc2cccc3ncnc(Nc4ccc(Cl)c(Cl)c4)c23)O[C@@H]2O[C@@]3(C)CC[C@H]4[C@H](C)CC[C@@H]1[C@@]24OO3,EC50,Plasmodium falciparum [2],0.0014 µM
O=C1c2ccc(N3CCN(CCO)CC3)cc2C(=O)N1CCCCCCNc1ccnc2cc(Cl)ccc12,IC50,Plasmodium falciparum [9],0.015 µM
C[C@H]1[C@@H](OCCCCc2cn(-c3cccc4cc(Cl)ccc34)nn2)O[C@@H]2O[C@]3(C)CC[C@H]4[C@H](C)CC[C@@H]1[C@@]24OO3,EC50,Plasmodium falciparum [4],0.0084 µM
same,EC50,Plasmodium falciparum [5],0.0061 µM
same,EC50,Plasmodium falciparum [6],0.0037 µM
O=C1c2ccc(N3CCN(CCO)CC3)cc2C(=O)N1CCNc1ccnc2cc(Cl)ccc12,IC50,Plasmodium falciparum [9],0.044 µM
COc1ccc2nc3cc(Cl)ccc3c(NCC3C(=O)c4ccc5c6c(ccc(c46)C3=O)C(=O)N(CCn3ccnc3)C5=O)c2c1,IC50,Plasmodium falciparum [14],0.00844 µM
